The values below come from PMC5218480 (PLoS ONE, 2017).

The experiment relates to MV-4-11 cells. Briefly: Gene expression microarray analysis (Affymetrix PrimeView) and GSEA. The format is cell-based, human. Further details: RFU PODN (11730768_x_at) / Fold change /veh PODN (11730768_x_at) / RFU LINC00158 (11744669_a_at) / Fold change /veh LINC00158 (11744669_a_at) / RFU DUSP10 (11751237_a_at) / Fold change /veh DUSP10 (11751237_a_at) / RFU ID3 (11757404_x_at) / Fold change /veh ID3 (11757404_x_at) / RFU PLEKHG5 (11737974_s_at) / Fold change /veh PLEKHG5 (11737974_s_at) / RFU LRRC4B (11730491_at) / Fold change /veh LRRC4B (11730491_at) / RFU GIMAP4 (11747438_a_at) / Fold change /veh GIMAP4 (11747438_a_at) / RFU KRT8 (11758183_x_at) / Fold change /veh KRT8 (11758183_x_at) / RFU CNN1 (11734310_a_at) / Fold change /veh CNN1 (11734310_a_at) / RFU VPS37D (11726825_at) / Fold change /veh VPS37D (11726825_at) / RFU C10orf10 (11716522_x_at) / Fold change /veh C10orf10 (11716522_x_at) / RFU KIR2DL2 /// KIR2DL4 /// KIR2DL5A /// KIR2DL5B /// KIR2DS1 /// KIR2DS2 /// KIR2DS3 /// KIR2DS4 /// KIR3DL3 /// KIR3DL3 /// KIR3DS1 (11738374_at) / Fold change /veh KIR2DL2 /// KIR2DL4 /// KIR2DL5A /// KIR2DL5B /// KIR2DS1 /// KIR2DS2 /// KIR2DS3 /// KIR2DS4 /// KIR3DL3 /// KIR3DL3 /// KIR3DS1 (11738374_at) / RFU C1QL1 (11718748_at) / Fold change /veh C1QL1 (11718748_at) / RFU TMPRSS4 (11747572_a_at) / Fold change /veh TMPRSS4 (11747572_a_at) / RFU HAMP (11756126_x_at) / Fold change /veh HAMP (11756126_x_at) / RFU RNFT2 (11725882_a_at) / Fold change /veh RNFT2 (11725882_a_at) / RFU NR4A2 (11747474_a_at) / Fold change /veh NR4A2 (11747474_a_at) / RFU ABCC12 (11746883_a_at) / Fold change /veh ABCC12 (11746883_a_at) / RFU TMEM136 (11760407_x_at) / Fold change /veh TMEM136 (11760407_x_at) / RFU CLDN22 /// WWC2 (11732394_at) / Fold change /veh CLDN22 /// WWC2 (11732394_at) / RFU HLA-DPB1 (11760878_x_at) / Fold change /veh HLA-DPB1 (11760878_x_at) / RFU SPINT1 (11716480_a_at) / Fold change /veh SPINT1 (11716480_a_at) / RFU GAP43 (11754022_s_at) / Fold change /veh GAP43 (11754022_s_at) / RFU A4GNT (11735810_at) / Fold change /veh A4GNT (11735810_at) / RFU PRB3 (11715151_x_at) / Fold change /veh PRB3 (11715151_x_at) / RFU TUBB4B (11761932_at) / Fold change /veh TUBB4B (11761932_at) / RFU CAPN14 (11732068_a_at) / Fold change /veh CAPN14 (11732068_a_at) / RFU TMCC2 (11721928_a_at) / Fold change /veh TMCC2 (11721928_a_at) / RFU IRGQ (11745062_a_at) / Fold change /veh IRGQ (11745062_a_at) / RFU FAM174B (11720279_a_at) / Fold change /veh FAM174B (11720279_a_at) / RFU TMPRSS4 (11748680_a_at) / Fold change /veh TMPRSS4 (11748680_a_at) / RFU FAM212B (11763350_a_at) / Fold change /veh FAM212B (11763350_a_at) / RFU PLEKHG5 (11743358_a_at) / Fold change /veh PLEKHG5 (11743358_a_at) / RFU ZSCAN30 (11745921_a_at) / Fold change /veh ZSCAN30 (11745921_a_at) / RFU CMKLR1 (11741424_a_at) / Fold change /veh CMKLR1 (11741424_a_at) / RFU LOC101060620 /// MAPK8IP1 (11723275_at) / Fold change /veh LOC101060620 /// MAPK8IP1 (11723275_at) / RFU SPTSSB (11747773_x_at) / Fold change /veh SPTSSB (11747773_x_at) / RFU PRSS12 (11739890_at) / Fold change /veh PRSS12 (11739890_at) / RFU BIN1 (11741810_x_at) / Fold change /veh BIN1 (11741810_x_at) / RFU WNT11 (11732464_a_at) / Fold change /veh WNT11 (11732464_a_at) / RFU C10orf10 (11716521_a_at) / Fold change /veh C10orf10 (11716521_a_at) / RFU C5orf56 (11738089_at) / Fold change /veh C5orf56 (11738089_at) / RFU CYB561 (11721691_x_at) / Fold change /veh CYB561 (11721691_x_at) / RFU ANKRD19P (11752326_a_at) / Fold change /veh ANKRD19P (11752326_a_at) / RFU OR2T12 /// OR2T33 /// OR2T8 (11738714_s_at) / Fold change /veh OR2T12 /// OR2T33 /// OR2T8 (11738714_s_at) / RFU VCAN (11748164_a_at) / Fold change /veh VCAN (11748164_a_at) / RFU JSRP1 (11732532_at) / Fold change /veh JSRP1 (11732532_at) / RFU KRTAP10-11 (11738290_x_at) / Fold change /veh KRTAP10-11 (11738290_x_at) / RFU MYO3A (11730013_a_at) / Fold change /veh MYO3A (11730013_a_at) / RFU EBF3 (11725865_a_at) / Fold change /veh EBF3 (11725865_a_at) / RFU CAMK2N1 (11719241_x_at) / Fold change /veh CAMK2N1 (11719241_x_at) / RFU C5orf56 (11738088_a_at) / Fold change /veh C5orf56 (11738088_a_at) / RFU OLFML3 (11715873_a_at) / Fold change /veh OLFML3 (11715873_a_at) / RFU LOC100653217 /// NTM (11731650_a_at) / Fold change /veh LOC100653217 /// NTM (11731650_a_at) / RFU MAPK11 (11762145_a_at) / Fold change /veh MAPK11 (11762145_a_at) / RFU FIZ1 (11724087_x_at) / Fold change /veh FIZ1 (11724087_x_at) / RFU OASL (11726364_x_at) / Fold change /veh OASL (11726364_x_at) / RFU SOX15 (11748057_x_at) / Fold change /veh SOX15 (11748057_x_at) / RFU CD79A (11719716_a_at) / Fold change /veh CD79A (11719716_a_at) / RFU HIST1H1D (11736915_at) / Fold change /veh HIST1H1D (11736915_at) / RFU CASKIN2 (11723855_a_at) / Fold change /veh CASKIN2 (11723855_a_at) / RFU LOC730098 (11760151_x_at) / Fold change /veh LOC730098 (11760151_x_at) / RFU OR4N2 (11742367_at) / Fold change /veh OR4N2 (11742367_at) / RFU PRRT2 (11749266_a_at) / Fold change /veh PRRT2 (11749266_a_at) / RFU SNX32 (11753110_a_at) / Fold change /veh SNX32 (11753110_a_at) / RFU CDHR5 (11726645_a_at) / Fold change /veh CDHR5 (11726645_a_at) / RFU RCAN1 (11760418_a_at) / Fold change /veh RCAN1 (11760418_a_at) / RFU FAM167A (11723789_a_at) / Fold change /veh FAM167A (11723789_a_at) / RFU FAM26E (11764081_at) / Fold change /veh FAM26E (11764081_at) / RFU ISYNA1 (11749810_s_at) / Fold change /veh ISYNA1 (11749810_s_at) / RFU ACY1 (11761880_at) / Fold change /veh ACY1 (11761880_at) / RFU 11764098_at / Fold change /veh 11764098_at / RFU SAMD14 (11745864_x_at) / Fold change /veh SAMD14 (11745864_x_at) / RFU NPB (11741838_a_at) / Fold change /veh NPB (11741838_a_at) / RFU TMPRSS6 (11731388_a_at) / Fold change /veh TMPRSS6 (11731388_a_at) / RFU KRTAP10-2 (11738614_at) / Fold change /veh KRTAP10-2 (11738614_at) / RFU ARHGAP8 /// PRR5-ARHGAP8 (11727945_x_at) / Fold change /veh ARHGAP8 /// PRR5-ARHGAP8 (11727945_x_at) / RFU KRTAP5-7 /// NADSYN1 (11734609_at) / Fold change /veh KRTAP5-7 /// NADSYN1 (11734609_at) / RFU RASL12 (11751679_a_at) / Fold change /veh RASL12 (11751679_a_at) / RFU CDKN2B (11736163_a_at) / Fold change /veh CDKN2B (11736163_a_at) / RFU PRF1 (11729649_at) / Fold change /veh PRF1 (11729649_at) / RFU, ZNF638 /// ZNF638-IT1 / Fold change vs veh, ZNF638 /// ZNF638-IT1 / RFU, PANK3 / Fold change vs veh, PANK3 / RFU, SH3YL1 / Fold change vs veh, SH3YL1 / RFU, ZEB2 / Fold change vs veh, ZEB2 / RFU, NRIP1 / Fold change vs veh, NRIP1 / RFU, PTTG1IP / Fold change vs veh, PTTG1IP / RFU, CAPN2 / Fold change vs veh, CAPN2 / RFU, MED14 / Fold change vs veh, MED14 / RFU, SNORA58 / Fold change vs veh, SNORA58 / RFU, C1orf63 / Fold change vs veh, C1orf63 / RFU, LRRFIP1 / Fold change vs veh, LRRFIP1 / RFU, NDUFAF7 / Fold change vs veh, NDUFAF7 / RFU, SLC12A2 / Fold change vs veh, SLC12A2 / RFU, IBTK / Fold change vs veh, IBTK / RFU, ESF1 / Fold change vs veh, ESF1 / Fold change vs veh, TMEM50B / RFU, TAOK1 / Fold change vs veh, TAOK1 / RFU, ACBD3 / Fold change vs veh, ACBD3 / RFU, TMA16 / Fold change vs veh, TMA16 / RFU, RWDD3 / Fold change vs veh, RWDD3 / RFU, BCAT1 / Fold change vs veh, BCAT1 / RFU, EDEM3 / Fold change vs veh, EDEM3 / RFU, TMEM33 / Fold change vs veh, TMEM33 / RFU, WDR75 / Fold change vs veh, WDR75 / RFU, AHCTF1 / Fold change vs veh, AHCTF1 / RFU, TFRC / Fold change vs veh, TFRC / RFU, ZDHHC17 / Fold change vs veh, ZDHHC17 / RFU, NOM1 / Fold change vs veh, NOM1 / RFU, ARL8B / Fold change vs veh, ARL8B / RFU, ZBTB11 / Fold change vs veh, ZBTB11 / RFU, TAMM41 / Fold change vs veh, TAMM41 / RFU, KIAA1704 /// LOC100996395 / Fold change vs veh, KIAA1704 /// LOC100996395 / RFU, ING1 / Fold change vs veh, ING1 / RFU, TRMT61B / Fold change vs veh, TRMT61B / RFU, FUBP3 / Fold change vs veh, FUBP3 / RFU, TP53 / Fold change vs veh, TP53 / RFU, TNKS2 / Fold change vs veh, TNKS2 / RFU, ZFP14 / Fold change vs veh, ZFP14 / RFU, ACTR2 / Fold change vs veh, ACTR2 / RFU, PPP3R1 / Fold change vs veh, PPP3R1 / RFU, PIK3R1 / Fold change vs veh, PIK3R1 / RFU, HNRNPA1 / Fold change vs veh, HNRNPA1 / RFU, RNF170 / Fold change vs veh, RNF170 / RFU, ZNF28 / Fold change vs veh, ZNF28 / RFU, RNGTT / Fold change vs veh, RNGTT / RFU, OGT / Fold change vs veh, OGT / RFU, BRD1 / Fold change vs veh, BRD1 / RFU, MARS / Fold change vs veh, MARS / RFU, ZNF655 / Fold change vs veh, ZNF655 / RFU, FAHD1 / Fold change vs veh, FAHD1 / RFU, BDP1 / Fold change vs veh, BDP1 / RFU, LRRCC1 / Fold change vs veh, LRRCC1 / RFU, ARID1A / Fold change vs veh, ARID1A / RFU, ZNF146 / Fold change vs veh, ZNF146 / RFU, ZNF330 / Fold change vs veh, ZNF330 / RFU, GPN3 / Fold change vs veh, GPN3 / RFU, C9orf123 / Fold change vs veh, C9orf123 / RFU, N4BP2L2 / Fold change vs veh, N4BP2L2 / RFU, ARFIP1 / Fold change vs veh, ARFIP1 / RFU, FAM179B / Fold change vs veh, FAM179B / RFU, BCL10 / Fold change vs veh, BCL10 / RFU, UHRF1BP1L / Fold change vs veh, UHRF1BP1L / RFU, BET1 / Fold change vs veh, BET1 / RFU, CNOT2 / Fold change vs veh, CNOT2 / RFU, ZNF268 / Fold change vs veh, ZNF268 / Fold change vs veh, ZNF507 / RFU, DGCR2 / Fold change vs veh, DGCR2 / RFU, WDSUB1 / Fold change vs veh, WDSUB1 / Fold change vs veh, HSP90B1 /// MIR3652 / RFU, ADSS / Fold change vs veh, ADSS / RFU, GK / Fold change vs veh, GK / RFU, ZNF148 / Fold change vs veh, ZNF148 / RFU, TAF9 / Fold change vs veh, TAF9 / RFU, SLC1A5 / Fold change vs veh, SLC1A5 / RFU, SLMO2 / Fold change vs veh, SLMO2 / RFU, ABCC4 / Fold change vs veh, ABCC4 / RFU, LOC101060439 /// RAP1B / Fold change vs veh, LOC101060439 /// RAP1B / RFU, RFX7 / Fold change vs veh, RFX7 / RFU, GTPBP10 / Fold change vs veh, GTPBP10 / RFU, CNEP1R1 / Fold change vs veh, CNEP1R1 / RFU, BIVM-ERCC5 /// ERCC5 / Fold change vs veh, BIVM-ERCC5 /// ERCC5 / RFU, ILF3 / Fold change vs veh, ILF3 / RFU 11762660_at / Fold change /veh 11762660_at / RFU VCAN (11757783_s_at) / Fold change /veh VCAN (11757783_s_at) / RFU DDX43 (11728927_at) / Fold change /veh DDX43 (11728927_at) / RFU KRT8 (11758188_x_at) / Fold change /veh KRT8 (11758188_x_at) / RFU NKD1 (11759106_at) / Fold change /veh NKD1 (11759106_at) / RFU SRD5A1 (11742802_a_at) / Fold change /veh SRD5A1 (11742802_a_at) / RFU TPSAB1 /// TPSB2 (11721975_s_at) / Fold change /veh TPSAB1 /// TPSB2 (11721975_s_at) / RFU GSTM3 (11746129_a_at) / Fold change /veh GSTM3 (11746129_a_at) / RFU IL23R (11737362_x_at) / Fold change /veh IL23R (11737362_x_at) / RFU TMEM51 (11727254_a_at) / Fold change /veh TMEM51 (11727254_a_at) / RFU PIWIL2 (11732686_x_at) / Fold change /veh PIWIL2 (11732686_x_at) / RFU ORM1 (11744905_x_at) / Fold change /veh ORM1 (11744905_x_at) / RFU CCDC152 (11743942_at) / Fold change /veh CCDC152 (11743942_at) / RFU ECM1 (11717891_a_at) / Fold change /veh ECM1 (11717891_a_at) / RFU IL23R (11748794_a_at) / Fold change /veh IL23R (11748794_a_at) / RFU TNFAIP8L3 (11732012_x_at) / Fold change /veh TNFAIP8L3 (11732012_x_at) / RFU MBOAT4 (11741988_at) / Fold change /veh MBOAT4 (11741988_at) / RFU 11764193_at / Fold change /veh 11764193_at / RFU TMEM53 (11763286_at) / Fold change /veh TMEM53 (11763286_at) / RFU MAGEB2 (11727129_at) / Fold change /veh MAGEB2 (11727129_at) / RFU TMEM200A (11744735_a_at) / Fold change /veh TMEM200A (11744735_a_at) / RFU CCDC152 (11751479_a_at) / Fold change /veh CCDC152 (11751479_a_at) / RFU FAM211A (11726209_a_at) / Fold change /veh FAM211A (11726209_a_at) / RFU RGS16 (11746705_a_at) / Fold change /veh RGS16 (11746705_a_at) / RFU VCAN (11755009_s_at) / Fold change /veh VCAN (11755009_s_at) / RFU RHOB (11743442_s_at) / Fold change /veh RHOB (11743442_s_at) / RFU RGS16 (11720943_a_at) / Fold change /veh RGS16 (11720943_a_at) / RFU RGS16 (11720944_at) / Fold change /veh RGS16 (11720944_at) / RFU, VPS4B / Fold change vs veh, VPS4B / RFU, CREB1 / Fold change vs veh, CREB1 / RFU, DNAJC13 / Fold change vs veh, DNAJC13 / RFU, GNAQ / Fold change vs veh, GNAQ / RFU, CDK5R1 / Fold change vs veh, CDK5R1 / RFU, ZRANB3 / Fold change vs veh, ZRANB3 / RFU, CUL4A / Fold change vs veh, CUL4A / RFU, CCNY / Fold change vs veh, CCNY / RFU, UFL1 / Fold change vs veh, UFL1 / RFU, COG3 / Fold change vs veh, COG3 / RFU, DIAPH2 / Fold change vs veh, DIAPH2 / RFU, SKA2 / Fold change vs veh, SKA2 / RFU, AFF3 / Fold change vs veh, AFF3 / RFU, LMF1 / Fold change vs veh, LMF1 / RFU, IPO11 / Fold change vs veh, IPO11 / RFU, DFFB / Fold change vs veh, DFFB / RFU, FOXP1 / Fold change vs veh, FOXP1 / RFU, CARD8 / Fold change vs veh, CARD8 / RFU, STRN3 / Fold change vs veh, STRN3 / RFU, ADK / Fold change vs veh, ADK / RFU, RASSF2 / Fold change vs veh, RASSF2 / RFU, WIPF1 / Fold change vs veh, WIPF1 / RFU, LARP1B / Fold change vs veh, LARP1B / RFU, RASA1 / Fold change vs veh, RASA1 / RFU, RB1 / Fold change vs veh, RB1 / RFU, PPFIA1 / Fold change vs veh, PPFIA1 / RFU, MAT2A / Fold change vs veh, MAT2A / RFU, CCT5 / Fold change vs veh, CCT5 / RFU, WDR92 / Fold change vs veh, WDR92 / RFU, CUX1 / Fold change vs veh, CUX1 / RFU, TTC7A / Fold change vs veh, TTC7A / RFU, TMEM135 / Fold change vs veh, TMEM135 / RFU, DEPTOR / Fold change vs veh, DEPTOR / RFU, CPM / Fold change vs veh, CPM / RFU, DNAJB6 / Fold change vs veh, DNAJB6 / RFU, CACNA2D3 / Fold change vs veh, CACNA2D3 / RFU, DTX4 / Fold change vs veh, DTX4 / RFU, TFCP2 / Fold change vs veh, TFCP2 / RFU, GMCL1 /// GMCL1P1 / Fold change vs veh, GMCL1 /// GMCL1P1 / RFU, AEBP2 / Fold change vs veh, AEBP2 / RFU, SNHG1 /// SNORD22 /// SNORD25 /// SNORD26 /// SNORD27 /// SNORD28 /// SNORD29 /// SNORD31 / Fold change vs veh, SNHG1 /// SNORD22 /// SNORD25 /// SNORD26 /// SNORD27 /// SNORD28 /// SNORD29 /// SNORD31 / Fold change (Aza/veh), C12orf56 (ProbeSet 11735607_a_at) / Fold change (ACY-1035/veh), C12orf56 (ProbeSet 11735607_a_at) / Fold change (Aza/veh), FGFR1OP (ProbeSet 11751329_s_at) / Fold change (ACY-1035/veh), FGFR1OP (ProbeSet 11751329_s_at) / Fold change (Aza/veh), VPS36 (ProbeSet 11739960_a_at) / Fold change (ACY-1035/veh), VPS36 (ProbeSet 11739960_a_at) / RFU SYPL1 (11715823_x_at) / Fold change /veh SYPL1 (11715823_x_at) / RFU IGFBP7 (11715501_s_at) / Fold change /veh IGFBP7 (11715501_s_at) / RFU REEP3 (11722064_at) / Fold change /veh REEP3 (11722064_at) / RFU IGLL1 (11728026_x_at) / Fold change /veh IGLL1 (11728026_x_at): dose or concentration left out as unconfirmed. Particulars: ProbeSet 11733176_x_at; LIST B.

Turning to `Nc1ccc(-c2cccs2)cc1NC(=O)c1ccc2c(c1)cc(C1CC1)n2CCN1CCOCC1` [ACY-1035], the “Fold change vs veh, ZNF507” value is 0.90.
